system: BaF3; assay: Cytotoxicity against mouse BaF3 cells expressing […]-RET kinase-V804L mutant fusion protein assessed as inhibition of cell proliferation incubated for 72 hrs by CCK8 assay; format: functional, cell-based; settings: BaF3, 72 h

SMILES | IC50
CCOC(=O)c1nc2ccc(NCCN3CCCCC3)nn2c1C#Cc1cc(C(=O)Nc2cc(-n3cnc(C)c3)cc(C(C)(C)C#N)c2)c(NCCN2CCCCC2)cc1C | 1600 nM
Cc1cn(-c2cc(NC(=O)c3cc(C#Cc4cnc5ccc(OCCN6CCOCC6)nn45)c(C)cc3F)cc(C(C)(C)C#N)c2)cn1 | 1800 nM
COc1ccc(CN2C3CC2CN(c2ccc(-c4cc(OCC(C)(C)O)cn5ncc(C#N)c45)cn2)C3)cn1 [SELPERCATINIB] | 20 nM
CCOC(=O)c1nc2n(c1C#Cc1cc(C(=O)Nc3cc(-n4cnc(C)c4)cc(C(F)(F)F)c3)ccc1C)NC(NC1CC1)C=C2 (stereo not drawn) | 3300 nM

system: BaF3; assay: Cytotoxicity against mouse BaF3 cells expressing […]-RET kinase-G810A mutant fusion protein assessed as inhibition of cell proliferation incubated for 72 hrs by CCK8 assay; format: functional, cell-based; settings: BaF3, 72 h

SMILES | IC50
CCOC(=O)c1nc2ccc(NCCN3CCCCC3)nn2c1C#Cc1cc(C(=O)Nc2cc(-n3cnc(C)c3)cc(C(C)(C)C#N)c2)c(NCCN2CCCCC2)cc1C | 1200 nM
Cc1cn(-c2cc(NC(=O)c3cc(C#Cc4cnc5ccc(OCCN6CCOCC6)nn45)c(C)cc3F)cc(C(C)(C)C#N)c2)cn1 | 50 nM
COc1ccc(CN2C3CC2CN(c2ccc(-c4cc(OCC(C)(C)O)cn5ncc(C#N)c45)cn2)C3)cn1 [SELPERCATINIB] | 260 nM
CCOC(=O)c1nc2n(c1C#Cc1cc(C(=O)Nc3cc(-n4cnc(C)c4)cc(C(F)(F)F)c3)ccc1C)NC(NC1CC1)C=C2 (stereo not drawn) | 3800 nM

biological target: Proto-oncogene tyrosine-protein kinase receptor Ret (Homo sapiens, UniProt P07949, V804M); assay: Inhibition of human RET kinase-V804M mutant using RRRRRRRRRRRVYSTDYYRLFNPS as substrate in presence of [gamma33P]-ATP and 10 uM ATP by radiometric HotSpot assay; settings: not given
Sequence (P07949 29-1114 V804M limits assumed): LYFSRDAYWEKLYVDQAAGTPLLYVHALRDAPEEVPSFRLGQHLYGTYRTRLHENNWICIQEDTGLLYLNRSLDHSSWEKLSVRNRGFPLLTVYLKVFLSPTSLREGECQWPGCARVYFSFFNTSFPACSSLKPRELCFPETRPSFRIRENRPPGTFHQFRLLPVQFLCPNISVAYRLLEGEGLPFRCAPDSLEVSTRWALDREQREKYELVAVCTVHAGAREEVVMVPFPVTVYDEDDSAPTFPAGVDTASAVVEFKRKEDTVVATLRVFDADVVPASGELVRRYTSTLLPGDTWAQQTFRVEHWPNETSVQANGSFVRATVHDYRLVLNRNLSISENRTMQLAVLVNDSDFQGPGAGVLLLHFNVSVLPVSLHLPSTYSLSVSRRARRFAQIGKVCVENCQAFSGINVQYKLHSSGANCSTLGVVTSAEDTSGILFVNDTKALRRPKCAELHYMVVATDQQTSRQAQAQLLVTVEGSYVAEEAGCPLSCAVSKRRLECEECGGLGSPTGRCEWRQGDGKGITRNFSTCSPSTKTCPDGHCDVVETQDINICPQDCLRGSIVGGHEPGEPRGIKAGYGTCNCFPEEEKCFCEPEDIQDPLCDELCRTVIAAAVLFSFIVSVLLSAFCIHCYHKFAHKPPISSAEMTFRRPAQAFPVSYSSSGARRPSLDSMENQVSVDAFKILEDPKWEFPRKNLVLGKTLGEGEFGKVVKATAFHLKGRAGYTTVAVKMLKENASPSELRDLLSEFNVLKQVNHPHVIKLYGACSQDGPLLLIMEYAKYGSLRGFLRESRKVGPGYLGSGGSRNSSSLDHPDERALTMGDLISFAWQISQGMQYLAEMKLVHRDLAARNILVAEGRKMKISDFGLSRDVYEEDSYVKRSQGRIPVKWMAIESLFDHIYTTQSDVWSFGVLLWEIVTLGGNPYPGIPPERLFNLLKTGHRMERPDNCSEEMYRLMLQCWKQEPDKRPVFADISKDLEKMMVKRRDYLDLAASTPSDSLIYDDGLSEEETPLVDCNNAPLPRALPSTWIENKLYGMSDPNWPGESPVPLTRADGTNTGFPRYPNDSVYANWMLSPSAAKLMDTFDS

SMILES | IC50
COc1ccc(Nc2ccc3ncc(C#Cc4cc(C(=O)Nc5cc(CN6CCN(C)CC6)cc(C(F)(F)F)c5)ccc4C)n3n2)cc1 | 0.9 nM
Cc1cn(-c2cc(NC(=O)c3cc(C#Cc4cnc5ccc(OCCN6CCOCC6)nn45)c(C)cc3F)cc(C(C)(C)C#N)c2)cn1 | 7.4 nM
CCOC(=O)c1nc2ccc(Nc3cc(C)[nH]n3)nn2c1C#Cc1cc(C(=O)Nc2cc(-n3cnc(C)c3)cc(C(F)(F)F)c2)ccc1C | 102 nM
Cc1ccc(C(=O)Nc2ccc(CN3CCN(C)CC3)c(C(F)(F)F)c2)cc1C#Cc1cnc2ccc(OCCN3CCOCC3)nn12 | < 0.5 nM
Cc1ccc(C(=O)Nc2cc(CN3CCN(C)CC3)cc(C(F)(F)F)c2)cc1C#Cc1cnc2ccc(N3CCOCC3)nn12 | 0.1 nM
Cc1ccc(C(=O)Nc2cc(CN3CCN(C)CC3)cc(C(F)(F)F)c2)cc1C#Cc1cnc2ccc(Cl)nn12 | < 0.5 nM
Cc1ccc(C(=O)Nc2ccc(CN3CCN(C)CC3)c(C(F)(F)F)c2)cc1C#Cc1cnc2ccc(OCCNC(C)C)nn12 | < 0.5 nM

system: BaF3; assay: Cytotoxicity against mouse BaF3 cells expressing […]-RET kinase-G810S mutant fusion protein assessed as inhibition of cell proliferation incubated for 72 hrs by CCK8 assay; format: functional, cell-based; settings: BaF3, 72 h

SMILES | IC50
CCOC(=O)c1nc2ccc(NCCN3CCCCC3)nn2c1C#Cc1cc(C(=O)Nc2cc(-n3cnc(C)c3)cc(C(C)(C)C#N)c2)c(NCCN2CCCCC2)cc1C | 1600 nM
Cc1cn(-c2cc(NC(=O)c3cc(C#Cc4cnc5ccc(OCCN6CCOCC6)nn45)c(C)cc3F)cc(C(C)(C)C#N)c2)cn1 | 100 nM
COc1ccc(CN2C3CC2CN(c2ccc(-c4cc(OCC(C)(C)O)cn5ncc(C#N)c45)cn2)C3)cn1 [SELPERCATINIB] | 400 nM
CCOC(=O)c1nc2n(c1C#Cc1cc(C(=O)Nc3cc(-n4cnc(C)c4)cc(C(F)(F)F)c3)ccc1C)NC(NC1CC1)C=C2 (stereo not drawn) | 3000 nM

biological target: Kinesin-1 heavy chain/ Tyrosine-protein kinase receptor RET (Homo sapiens, UniProt P07949); assay: Inhibition of human […]-RET kinase in presence of [gamma33P]-ATP and 10 uM ATP by radiometric HotSpot assay; format: protein assay; settings: not given
Sequence (P07949 whole entry): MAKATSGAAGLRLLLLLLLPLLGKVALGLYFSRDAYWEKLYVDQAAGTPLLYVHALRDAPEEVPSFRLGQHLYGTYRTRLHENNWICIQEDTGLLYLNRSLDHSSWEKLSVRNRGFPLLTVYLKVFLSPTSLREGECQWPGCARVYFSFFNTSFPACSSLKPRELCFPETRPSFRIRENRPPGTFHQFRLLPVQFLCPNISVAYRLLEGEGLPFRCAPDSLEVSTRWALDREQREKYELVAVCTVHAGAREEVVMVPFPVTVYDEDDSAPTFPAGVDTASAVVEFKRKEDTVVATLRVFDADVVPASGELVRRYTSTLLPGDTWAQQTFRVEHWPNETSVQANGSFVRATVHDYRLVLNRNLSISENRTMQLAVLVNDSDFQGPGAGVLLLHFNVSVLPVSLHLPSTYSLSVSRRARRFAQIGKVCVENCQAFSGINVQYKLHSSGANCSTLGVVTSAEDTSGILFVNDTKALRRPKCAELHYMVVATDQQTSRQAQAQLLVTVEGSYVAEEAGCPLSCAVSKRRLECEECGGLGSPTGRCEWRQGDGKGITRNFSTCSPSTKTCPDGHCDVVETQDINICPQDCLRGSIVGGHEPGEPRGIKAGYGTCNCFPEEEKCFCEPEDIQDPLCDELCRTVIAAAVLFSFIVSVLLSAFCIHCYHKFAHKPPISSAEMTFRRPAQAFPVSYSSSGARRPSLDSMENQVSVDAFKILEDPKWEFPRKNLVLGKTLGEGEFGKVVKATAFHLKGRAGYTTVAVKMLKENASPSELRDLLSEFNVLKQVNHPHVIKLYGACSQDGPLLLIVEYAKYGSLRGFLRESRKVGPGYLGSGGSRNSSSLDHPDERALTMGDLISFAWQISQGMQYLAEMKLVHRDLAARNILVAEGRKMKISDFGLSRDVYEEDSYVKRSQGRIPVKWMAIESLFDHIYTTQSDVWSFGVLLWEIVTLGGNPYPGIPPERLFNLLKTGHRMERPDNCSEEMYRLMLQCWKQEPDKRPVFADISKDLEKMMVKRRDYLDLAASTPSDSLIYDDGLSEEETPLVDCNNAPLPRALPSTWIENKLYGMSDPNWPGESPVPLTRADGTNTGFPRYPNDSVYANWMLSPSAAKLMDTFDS
Sequence (P33176 whole entry, further chain): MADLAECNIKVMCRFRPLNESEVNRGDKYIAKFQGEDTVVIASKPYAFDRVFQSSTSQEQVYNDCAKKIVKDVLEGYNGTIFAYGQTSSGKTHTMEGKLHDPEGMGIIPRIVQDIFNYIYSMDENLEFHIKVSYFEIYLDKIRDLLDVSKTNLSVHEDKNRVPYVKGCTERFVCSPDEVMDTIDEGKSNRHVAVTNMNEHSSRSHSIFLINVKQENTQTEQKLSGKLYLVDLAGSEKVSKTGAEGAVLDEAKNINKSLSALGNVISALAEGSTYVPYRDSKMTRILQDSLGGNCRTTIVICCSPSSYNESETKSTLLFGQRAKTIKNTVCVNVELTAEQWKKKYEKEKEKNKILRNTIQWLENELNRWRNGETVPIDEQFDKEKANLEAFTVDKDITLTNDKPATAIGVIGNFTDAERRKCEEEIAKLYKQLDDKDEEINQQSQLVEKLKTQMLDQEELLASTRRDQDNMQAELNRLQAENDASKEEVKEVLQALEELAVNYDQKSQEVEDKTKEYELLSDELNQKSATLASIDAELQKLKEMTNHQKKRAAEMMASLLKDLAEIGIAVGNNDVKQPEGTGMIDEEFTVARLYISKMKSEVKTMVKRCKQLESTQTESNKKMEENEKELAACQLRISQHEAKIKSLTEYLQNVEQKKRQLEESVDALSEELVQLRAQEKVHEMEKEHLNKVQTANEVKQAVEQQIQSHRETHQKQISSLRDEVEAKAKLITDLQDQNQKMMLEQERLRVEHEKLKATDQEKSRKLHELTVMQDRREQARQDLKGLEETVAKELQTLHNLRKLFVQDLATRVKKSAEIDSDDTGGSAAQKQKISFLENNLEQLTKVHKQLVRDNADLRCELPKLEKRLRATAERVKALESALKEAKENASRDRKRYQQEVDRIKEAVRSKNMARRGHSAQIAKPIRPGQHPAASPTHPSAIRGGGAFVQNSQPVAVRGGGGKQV

SMILES | IC50
Cc1cn(-c2cc(NC(=O)c3cc(C#Cc4cnc5ccc(OCCN6CCOCC6)nn45)c(C)cc3F)cc(C(C)(C)C#N)c2)cn1 | 43.7 nM
CCOC(=O)c1nc2ccc(Nc3cc(C)[nH]n3)nn2c1C#Cc1cc(C(=O)Nc2cc(-n3cnc(C)c3)cc(C(F)(F)F)c2)ccc1C | > 2000 nM
Cc1ccc(C(=O)Nc2ccc(CN3CCN(C)CC3)c(C(F)(F)F)c2)cc1C#Cc1cnc2ccc(OCCN3CCOCC3)nn12 | 129 nM
Cc1ccc(C(=O)Nc2ccc(CN3CCN(C)CC3)c(C(F)(F)F)c2)cc1C#Cc1cnc2ccc(OCCNC(C)C)nn12 | 1.2 nM

biological target: not listed separately; assay: Inhibition of human […]-RET kinase-V804M mutant in presence of [gamma33P]-ATP and 10 uM ATP by radiometric HotSpot assay; settings: not given

SMILES | IC50
COc1ccc(Nc2ccc3ncc(C#Cc4cc(C(=O)Nc5cc(CN6CCN(C)CC6)cc(C(F)(F)F)c5)ccc4C)n3n2)cc1 | 137 nM
Cc1cn(-c2cc(NC(=O)c3cc(C#Cc4cnc5ccc(OCCN6CCOCC6)nn45)c(C)cc3F)cc(C(C)(C)C#N)c2)cn1 | 622 nM
CCOC(=O)c1nc2ccc(Nc3cc(C)[nH]n3)nn2c1C#Cc1cc(C(=O)Nc2cc(-n3cnc(C)c3)cc(C(F)(F)F)c2)ccc1C | > 2000 nM
Cc1ccc(C(=O)Nc2ccc(CN3CCN(C)CC3)c(C(F)(F)F)c2)cc1C#Cc1cnc2ccc(OCCN3CCOCC3)nn12 | 84.5 nM
Cc1ccc(C(=O)Nc2cc(CN3CCN(C)CC3)cc(C(F)(F)F)c2)cc1C#Cc1cnc2ccc(N3CCOCC3)nn12 | 47.8 nM
Cc1ccc(C(=O)Nc2cc(CN3CCN(C)CC3)cc(C(F)(F)F)c2)cc1C#Cc1cnc2ccc(Cl)nn12 | 281 nM
Cc1ccc(C(=O)Nc2ccc(CN3CCN(C)CC3)c(C(F)(F)F)c2)cc1C#Cc1cnc2ccc(OCCNC(C)C)nn12 | 19.4 nM

system: BaF3; assay: Cytotoxicity against mouse BaF3 cells expressing […]-RET kinase-G810C mutant fusion protein assessed as inhibition of cell proliferation incubated for 72 hrs by CCK8 assay; format: functional, cell-based; settings: BaF3, 72 h

SMILES | IC50
CCOC(=O)c1nc2ccc(NCCN3CCCCC3)nn2c1C#Cc1cc(C(=O)Nc2cc(-n3cnc(C)c3)cc(C(C)(C)C#N)c2)c(NCCN2CCCCC2)cc1C | 1700 nM
Cc1cn(-c2cc(NC(=O)c3cc(C#Cc4cnc5ccc(OCCN6CCOCC6)nn45)c(C)cc3F)cc(C(C)(C)C#N)c2)cn1 | 600 nM
COc1ccc(CN2C3CC2CN(c2ccc(-c4cc(OCC(C)(C)O)cn5ncc(C#N)c45)cn2)C3)cn1 [SELPERCATINIB] | 5800 nM
CCOC(=O)c1nc2n(c1C#Cc1cc(C(=O)Nc3cc(-n4cnc(C)c4)cc(C(F)(F)F)c3)ccc1C)NC(NC1CC1)C=C2 (stereo not drawn) | 2900 nM

system: BaF3; assay: Cytotoxicity against mouse BaF3 cells expressing […]-RET kinase-G810R mutant fusion protein assessed as inhibition of cell proliferation incubated for 72 hrs by CCK8 assay; format: functional, cell-based; settings: BaF3, 72 h

SMILES | IC50
CCOC(=O)c1nc2ccc(NCCN3CCCCC3)nn2c1C#Cc1cc(C(=O)Nc2cc(-n3cnc(C)c3)cc(C(C)(C)C#N)c2)c(NCCN2CCCCC2)cc1C | 1200 nM
Cc1cn(-c2cc(NC(=O)c3cc(C#Cc4cnc5ccc(OCCN6CCOCC6)nn45)c(C)cc3F)cc(C(C)(C)C#N)c2)cn1 | 400 nM
COc1ccc(CN2C3CC2CN(c2ccc(-c4cc(OCC(C)(C)O)cn5ncc(C#N)c45)cn2)C3)cn1 [SELPERCATINIB] | 2100 nM
CCOC(=O)c1nc2n(c1C#Cc1cc(C(=O)Nc3cc(-n4cnc(C)c4)cc(C(F)(F)F)c3)ccc1C)NC(NC1CC1)C=C2 (stereo not drawn) | 3800 nM

system: Proto-oncogene tyrosine-protein kinase receptor Ret (Homo sapiens), P07949 [G810R]; assay: Inhibition of human RET kinase-G810R mutant assessed as residual activity at 0.1 uM using RRRRRRRRRRRVYSTDYYRLFNPS as substrate in presence of [gamma33P]-ATP and 10 uM ATP by radiometric HotSpot assay; settings: not given
Sequence (P07949 whole entry G810R): as the sequence (P07949 whole entry) above, with G810R counted along it

SMILES | Activity
COc1ccc(Nc2ccc3ncc(C#Cc4cc(C(=O)Nc5cc(CN6CCN(C)CC6)cc(C(F)(F)F)c5)ccc4C)n3n2)cc1 | 46.6%
Cc1ccc(C(=O)Nc2cc(CN3CCN(C)CC3)cc(C(F)(F)F)c2)cc1C#Cc1cnc2ccc(N3CCOCC3)nn12 | 26.4%

system: Proto-oncogene tyrosine-protein kinase receptor Ret (Homo sapiens), P07949 [V804M]; assay: Inhibition of human RET kinase-V804M mutant at 0.1 uM using RRRRRRRRRRRVYSTDYYRLFNPS as substrate in presence of [gamma33P]-ATP and 10 uM ATP by radiometric HotSpot assay relative to control; settings: not given
Sequence (P07949 whole entry V804M): as the sequence (P07949 whole entry) above, with V804M counted along it

SMILES | inhibition
Cc1ccc(C(=O)Nc2cc(CN3CCN(C)CC3)cc(C(F)(F)F)c2)cc1C#Cc1cnc2ccc(Cl)nn12 | 100%

system: BaF3; assay: Cytotoxicity against mouse BaF3 cells expressing […]-RET kinase-V804M mutant fusion protein assessed as inhibition of cell proliferation incubated for 72 hrs by CCK8 assay; format: functional, cell-based; settings: BaF3, 72 h

SMILES | IC50
Cc1cn(-c2cc(NC(=O)c3cc(C#Cc4cnc5ccc(OCCN6CCOCC6)nn45)c(C)cc3F)cc(C(C)(C)C#N)c2)cn1 | 1600 nM
COc1ccc(CN2C3CC2CN(c2ccc(-c4cc(OCC(C)(C)O)cn5ncc(C#N)c45)cn2)C3)cn1 [SELPERCATINIB] | 100 nM

biological target: Proto-oncogene tyrosine-protein kinase receptor Ret (Homo sapiens, UniProt P07949); assay: Inhibition of human wild type RET kinase using RRRRRRRRRRRVYSTDYYRLFNPS as substrate in presence of [gamma33P]-ATP and 10 uM ATP by radiometric HotSpot assay; settings: not given
Sequence (P07949 whole entry): as the sequence (P07949 whole entry) above

SMILES | IC50
Cc1cn(-c2cc(NC(=O)c3cc(C#Cc4cnc5ccc(OCCN6CCOCC6)nn45)c(C)cc3F)cc(C(C)(C)C#N)c2)cn1 | 345 nM
CCOC(=O)c1nc2ccc(Nc3cc(C)[nH]n3)nn2c1C#Cc1cc(C(=O)Nc2cc(-n3cnc(C)c3)cc(C(F)(F)F)c2)ccc1C | 921 nM
Cc1ccc(C(=O)Nc2ccc(CN3CCN(C)CC3)c(C(F)(F)F)c2)cc1C#Cc1cnc2ccc(OCCN3CCOCC3)nn12 | 478 nM
Cc1ccc(C(=O)Nc2ccc(CN3CCN(C)CC3)c(C(F)(F)F)c2)cc1C#Cc1cnc2ccc(OCCNC(C)C)nn12 | 3.6 nM

biological target: Proto-oncogene tyrosine-protein kinase receptor Ret (Homo sapiens, UniProt P07949, G810R); assay: Inhibition of human RET kinase-G810R mutant using RRRRRRRRRRRVYSTDYYRLFNPS as substrate in presence of [gamma33P]-ATP and 10 uM ATP by radiometric HotSpot assay; settings: not given
Sequence (P07949 29-1114 G810R limits assumed): as the sequence (P07949 29-1114 V804M limits assumed) above, with M776V, G782R counted along it

SMILES | IC50
COc1ccc(Nc2ccc3ncc(C#Cc4cc(C(=O)Nc5cc(CN6CCN(C)CC6)cc(C(F)(F)F)c5)ccc4C)n3n2)cc1 | 89.8 nM
Cc1cn(-c2cc(NC(=O)c3cc(C#Cc4cnc5ccc(OCCN6CCOCC6)nn45)c(C)cc3F)cc(C(C)(C)C#N)c2)cn1 | 1300 nM
CCOC(=O)c1nc2ccc(Nc3cc(C)[nH]n3)nn2c1C#Cc1cc(C(=O)Nc2cc(-n3cnc(C)c3)cc(C(F)(F)F)c2)ccc1C | > 2000 nM
Cc1ccc(C(=O)Nc2ccc(CN3CCN(C)CC3)c(C(F)(F)F)c2)cc1C#Cc1cnc2ccc(OCCN3CCOCC3)nn12 | 11 nM
Cc1ccc(C(=O)Nc2cc(CN3CCN(C)CC3)cc(C(F)(F)F)c2)cc1C#Cc1cnc2ccc(N3CCOCC3)nn12 | 41.3 nM
Cc1ccc(C(=O)Nc2cc(CN3CCN(C)CC3)cc(C(F)(F)F)c2)cc1C#Cc1cnc2ccc(Cl)nn12 | 19.8 nM
Cc1ccc(C(=O)Nc2ccc(CN3CCN(C)CC3)c(C(F)(F)F)c2)cc1C#Cc1cnc2ccc(OCCNC(C)C)nn12 | 25.3 nM

system: BaF3; assay: Cytotoxicity against mouse BaF3 cells expressing […]-RET kinase fusion protein assessed as inhibition of cell proliferation incubated for 72 hrs by CCK8 assay; format: functional, cell-based; settings: BaF3, 72 h

SMILES | IC50
CCOC(=O)c1nc2ccc(NCCN3CCCCC3)nn2c1C#Cc1cc(C(=O)Nc2cc(-n3cnc(C)c3)cc(C(C)(C)C#N)c2)c(NCCN2CCCCC2)cc1C | 900 nM
Cc1cn(-c2cc(NC(=O)c3cc(C#Cc4cnc5ccc(OCCN6CCOCC6)nn45)c(C)cc3F)cc(C(C)(C)C#N)c2)cn1 | 100 nM
COc1ccc(CN2C3CC2CN(c2ccc(-c4cc(OCC(C)(C)O)cn5ncc(C#N)c45)cn2)C3)cn1 [SELPERCATINIB] | 10 nM
CCOC(=O)c1nc2n(c1C#Cc1cc(C(=O)Nc3cc(-n4cnc(C)c4)cc(C(F)(F)F)c3)ccc1C)NC(NC1CC1)C=C2 (stereo not drawn) | 3000 nM

Reference: ChEMBL document CHEMBL5614446, “Side Chain Investigation of Imidazopyridazine as a Hinge Binder for Targeting Actionable Mutations of RET Kinase” (ACS Med Chem Lett, 2024)
